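In this assay, cells in 96-well plates receive the compound at five concentrations for 48 hours. Endpoints are linearly interpolated between the surrounding concentrations. GI50: concentration for 50% inhibition of growth. Definition used: TGI = concentration required for complete inhibition of growth.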
Legend:
Experiment in all cases: NCI tumour cell line growth inhibition, 48 h
CAKI-1 renal = test system: CAKI-1 renal
COLO 205 colon = test system: COLO 205 colon
HCT-116 colon = test system: HCT-116 colon
HCT-15 colon = test system: HCT-15 colon
IGROV1 ovarian = test system: IGROV1 ovarian
NCI-H460 lung = test system: NCI-H460 lung
RPMI-8226 leukemia = test system: RPMI-8226 leukemia
SF-295 CNS = test system: SF-295 CNS
SK-MEL-5 melanoma = test system: SK-MEL-5 melanoma
TK-10 renal = test system: TK-10 renal

| Compound | TGI (CAKI-1 renal) | TGI (COLO 205 colon) | TGI (HCT-116 colon) | TGI (HCT-15 colon) | TGI (IGROV1 ovarian) | TGI (NCI-H460 lung) | TGI (RPMI-8226 leukemia) | TGI (SF-295 CNS) | TGI (SK-MEL-5 melanoma) | TGI (TK-10 renal) | GI50 (CAKI-1 renal) | GI50 (COLO 205 colon) | GI50 (HCT-116 colon) | GI50 (HCT-15 colon) | GI50 (IGROV1 ovarian) | GI50 (NCI-H460 lung) | GI50 (RPMI-8226 leukemia) | GI50 (SF-295 CNS) | GI50 (TK-10 renal) | GI50 (SK-MEL-5 melanoma) |
| --- | --- | --- | --- | --- | --- | --- | --- | --- | --- | --- | --- | --- | --- | --- | --- | --- | --- | --- | --- | --- |
| Cc1c(C(=O)/C=C/c2ccccc2[N+](=O)[O-])[n+](=O)c2ccccc2n1[O-] | 15.7 µM | 13.7 µM | 16.5 µM | 12.6 µM | 29.9 µM | 22.5 µM | 14.7 µM | 20.4 µM | 24.4 µM | – | – | – | – | – | – | – | – | – | – | – |
| Cc1ccc2oc(=O)c(-c3ccccc3)nc2c1 | > 100 µM | 71.1 µM | > 100 µM | 96.9 µM | – | > 100 µM | > 100 µM | > 100 µM | > 100 µM | > 100 µM | – | – | – | – | – | – | – | – | – | – |
| C=CC1=C(C)C2=NC1=CC1=NC(=CC3=C(C)C4=C(O)[C@H](C(=O)OC)C(=C5NC(=C2)[C@@H](C)[C@@H]5CCC(=O)O)C4=N3)C(CC)=C1C | > 100 µM | 11.8 µM | > 59 µM | 9.72 µM | > 23.8 µM | 13.8 µM | – | 6.01 µM | 3.75 µM | 25.5 µM | – | – | – | – | – | – | – | – | – | – |
| O=C1[C@H]2ON(c3ccccc3)C(c3ccco3)[C@H]2C(=O)N1c1ccc(Cc2ccc(N3C(=O)[C@@H]4ON(c5ccccc5)C(c5ccco5)[C@@H]4C3=O)cc2)cc1 (some centres undefined) | > 100 µM | > 100 µM | – | > 100 µM | > 100 µM | > 100 µM | > 100 µM | > 100 µM | > 100 µM | – | – | – | – | – | – | – | – | – | – | – |
| O=S1CSSC1 | 77.4 µM | 32 µM | 31.7 µM | – | 54.9 µM | – | – | 65.1 µM | – | > 100 µM | – | – | – | – | – | – | – | – | – | – |
| Cc1ccc(NC(=O)/C(Cc2nc3ccc([N+](=O)[O-])cc3[nH]c2=O)=N\NC(=O)C[n+]2ccccc2)c(C)c1 | > 100 µM | > 100 µM | > 100 µM | > 100 µM | > 100 µM | > 100 µM | – | > 100 µM | 55.4 µM | 64.4 µM | – | – | – | – | – | – | – | – | – | – |
| N#CC(C#N)=c1c2nsnc2c(=C(C#N)C#N)c2nsnc12 | 3.53 µM | 4.83 µM | 3.71 µM | – | – | 3.86 µM | – | 3.33 µM | – | 31.3 µM | – | – | – | – | – | – | – | – | – | – |
| Clc1ccc2c(c1)N(c1ncnc3ccc(-c4cnc5[nH]ncc5c4)cc13)CC2 | > 100 µM | > 100 µM | > 100 µM | > 100 µM | 0.554 µM | > 100 µM | > 100 µM | > 100 µM | – | > 100 µM | 0.316 µM | 0.695 µM | 1.15 µM | 0.392 µM | 0.11 µM | 0.463 µM | 0.759 µM | 0.632 µM | 0.835 µM | – |
| O=C1c2ccccc2-c2c1c1ccccc1c(=O)n2CCNCCn1c2c(c3ccccc3c1=O)C(=O)c1ccccc1-2 | > 25 µM | > 25 µM | > 25 µM | > 25 µM | > 25 µM | > 25 µM | – | > 25 µM | > 25 µM | > 25 µM | > 25 µM | 2.2 µM | > 25 µM | > 25 µM | > 25 µM | > 25 µM | – | > 25 µM | > 25 µM | > 25 µM |
| C=C1C2Oc3ccccc3C1N(c1ccccc1)O2 (centres undefined) | > 100 µM | > 100 µM | 54.2 µM | > 100 µM | > 100 µM | 55.5 µM | > 100 µM | 62.7 µM | – | > 100 µM | – | – | – | – | – | – | – | – | – | – |
| C[C@]12C/C(=C/O)C(=O)C(O)=C1CC[C@@H]1C2CC[C@@]2(C)C1CC[C@@H]2O (some centres undefined) | 76.6 µM | 44.5 µM | – | 61.5 µM | 46 µM | 48.1 µM | 64.8 µM | 72.5 µM | 42.9 µM | > 100 µM | – | – | – | – | – | – | – | – | – | – |
| O=C1/C(=C/c2cccc([N+](=O)[O-])c2)Sc2scc(-c3ccc([N+](=O)[O-])cc3)[n+]21 | 51.5 µM | > 100 µM | 34.9 µM | 33.6 µM | 53.6 µM | 24.6 µM | – | 53.6 µM | > 100 µM | – | – | – | – | – | – | – | – | – | – | – |
| CCCCCCC(C)CCCCCCCCCCC(=O)O (centres undefined) | > 100 µM | > 100 µM | > 100 µM | – | > 100 µM | > 100 µM | > 100 µM | > 100 µM | > 100 µM | > 100 µM | – | – | – | – | – | – | – | – | – | – |
| O=c1[nH]c2cc([N+](=O)[O-])ccc2nc1/C(=N\Nc1ccccc1)C(O)c1ccc2c(c1)OCO2 (centres undefined) | – | > 100 µM | > 100 µM | 58.2 µM | > 100 µM | > 100 µM | > 100 µM | > 100 µM | > 100 µM | > 100 µM | – | – | – | – | – | – | – | – | – | – |
| CCCCCCCCCCCCCC[n+]1cccc(C(N)=O)c1 | 6.52 µM | 2.72 µM | 3.97 µM | 58.3 µM | 0.681 µM | 10.9 µM | 4.44 µM | 4.23 µM | – | 2.02 µM | 0.964 µM | 1.29 µM | 1.61 µM | 13.5 µM | 0.197 µM | 3.09 µM | 1.87 µM | 1.69 µM | 0.675 µM | – |
| CC(=O)n1c(=O)c2cc3c(=O)n(-c4cccc(C#N)c4)c(=O)c3cc2c1=O | > 100 µM | > 100 µM | > 100 µM | > 100 µM | > 100 µM | > 100 µM | – | > 100 µM | > 100 µM | > 100 µM | – | – | – | – | – | – | – | – | – | – |
| Cc1cccc(N(CC(=O)O)S(=O)(=O)c2ccccc2)c1 | > 100 µM | > 100 µM | – | > 100 µM | > 100 µM | > 100 µM | > 100 µM | > 100 µM | > 100 µM | > 100 µM | – | – | – | – | – | – | – | – | – | – |
| COc1cccc2c(=O)c3c(sc12)c(NCCCNCCO)nc1ccccc13 | 2.5 µM | 3.09 µM | 2.74 µM | 3.02 µM | 2.58 µM | 3.15 µM | 3.71 µM | 3.24 µM | 3.11 µM | – | 1.18 µM | 1.45 µM | 1.41 µM | 1.51 µM | 1.16 µM | 1.54 µM | 1.73 µM | 1.71 µM | – | 1.69 µM |
| CSc1ccc(N(C)c2nc(C)nc3c2CCC3)cc1 | > 100 µM | < 0.01 µM | – | > 100 µM | > 100 µM | 19 µM | 25 µM | 12.2 µM | – | – | < 0.01 µM | < 0.01 µM | – | < 0.01 µM | < 0.01 µM | < 0.01 µM | < 0.01 µM | < 0.01 µM | – | – |

From PubChem BioAssay (NCI)
